Experimental findings from patent US20250122160A1, “PROTEIN TYROSINE PHOSPHATASE INHIBITORS AND METHODS OF USE THEREOF” (Calico Life Sciences LLC, priority 0001, published 2025) are described below.

For assay [1], the target named is T1, His tagged full-length PTPN1 protein (Homo sapiens, UniProt P18031).
T1 construct: made in house
T1 sequence (P18031 with tags, fused parts or gaps): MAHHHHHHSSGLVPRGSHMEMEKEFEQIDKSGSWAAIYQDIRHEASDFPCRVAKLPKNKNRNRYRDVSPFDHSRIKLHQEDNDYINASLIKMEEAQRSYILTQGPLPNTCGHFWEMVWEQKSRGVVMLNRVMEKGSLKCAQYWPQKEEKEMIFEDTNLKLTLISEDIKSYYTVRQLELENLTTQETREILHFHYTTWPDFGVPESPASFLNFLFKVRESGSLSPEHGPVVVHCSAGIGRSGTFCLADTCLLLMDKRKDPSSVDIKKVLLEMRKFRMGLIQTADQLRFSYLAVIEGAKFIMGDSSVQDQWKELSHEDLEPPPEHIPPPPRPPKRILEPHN
Description: Mobility shift assay (MSA) to determine potency of PTPN1 inhibitors. The assay is classed as biochemical. The following applies: 0.5 nM enzyme, 2 μM substrate. In outline: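 His-tagged full-length human PTPN1 (0.5 nM) preincubated with compound 10 min at room temperature in pH 7.5 HEPES buffer with EGTA, EDTA, Tween 20 and DTT. Dephosphorylation of 2 μM fluorescent phospho-insulin-receptor peptide over 10 min measured by mobility shift. IC50 from % inhibition across a 12-point, 1:3 dilution series.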

In assay [2] the target is T2, His tagged PTPN2 (TC45) protein (Homo sapiens, UniProt P17706).
T2 construct: made in house
T2 sequence (P17706 with tags, fused parts or gaps isoform P17706-2): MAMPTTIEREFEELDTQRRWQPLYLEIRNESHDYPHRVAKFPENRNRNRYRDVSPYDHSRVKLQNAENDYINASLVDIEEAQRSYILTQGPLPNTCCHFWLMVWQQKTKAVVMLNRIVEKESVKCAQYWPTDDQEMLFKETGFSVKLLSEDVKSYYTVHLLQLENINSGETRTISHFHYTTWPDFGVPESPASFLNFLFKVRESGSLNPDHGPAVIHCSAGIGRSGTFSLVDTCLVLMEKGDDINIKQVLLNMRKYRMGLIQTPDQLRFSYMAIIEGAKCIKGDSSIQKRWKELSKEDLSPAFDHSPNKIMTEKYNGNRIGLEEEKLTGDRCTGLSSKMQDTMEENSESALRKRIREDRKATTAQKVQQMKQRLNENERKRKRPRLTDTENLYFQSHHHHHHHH
Description: Mobility shift assay (MSA) to determine potency of PTPN2 inhibitors. The assay is classed as biochemical. The following applies: 0.5 nM enzyme, 2 μM substrate. The method in brief:
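His-tagged human PTPN2 (TC45), 0.5 nM, preincubated 10 min at room temperature with compound (12-point, 1:3 dilutions) in HEPES pH 7.5 buffer with EGTA, EDTA, Tween 20 and DTT. Then 2 μM OG488-labelled phospho-insulin-receptor peptide was added for 10 min and quenched. % conversion was read by mobility shift, and IC50 came from % inhibition.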

pIC50: −log10 of the molar value.

With `COCC(C)(C)CNC(=O)N1CCc2cc(O)c(N3CC(=O)NS3(=O)=O)c(F)c2C1` [Compound 279], the pIC50 in assay [1] and in assay [2] was 7.00 to 8.00 throughout.

As to `COCCCCN[C@@H]1CCc2cc(O)c(N3CC(=O)NS3(=O)=O)c(F)c2C1` [Compound 360, 5-{(7R)-1-fluoro-3-hydroxy-7-[(4-methoxybutyl)amino]-5,6,7,8-tetrahydronaphthalen-2-yl}-1λ^6,2,5-thiadiazolidine-1,1,3-trione], the pIC50 in assay [1] was 7.00 to 8.00; in assay [2] it was 8.00 to 9.00.

For `NCC1CCc2cc(O)c(N3CC(=O)NS3(=O)=O)c(F)c2C1` (stereo not drawn) [Compound 389, 5-[7-(aminomethyl)-1-fluoro-3-hydroxy-5,6,7,8-tetrahydronaphthalen-2-yl]-1λ^6,2,5-thiadiazolidine-1,1,3-trione], the pIC50 in assay [1] and in assay [2] was 7.00 to 8.00 throughout.

As to `[2H]C1([2H])Cc2cc(O)c(N3CC(=O)NS3(=O)=O)c(F)c2C([2H])([2H])[C@]1([2H])NCCC(C)C` (single isomer, unassigned) [Compound 371], the negative logarithm of the IC50 (pIC50) in assay [1] is 8.00 to 9.00; in assay [2], over 9.00.

In the case of `Cc1nn(C)c(C)c1CN1CCc2cc(O)c(N3CC(=O)NS3(=O)=O)c(F)c2C1` [Compound 213], the pIC50 in assay [1] and in assay [2] was under 7.00 in each case.

Turning to `CC1(CN[C@@H]2CCc3cc(O)c(N4CC(=O)NS4(=O)=O)c(F)c3C2)COC1` [Compound 344, 5-[(7R)-1-fluoro-3-hydroxy-7-{[(3-methyloxetan-3-yl)methyl]amino}-5,6,7,8-tetrahydronaphthalen-2-yl]-1λ^6,2,5-thiadiazolidine-1,1,3-trione], the pIC50 was 7.00 to 8.00 in assay [1] and 8.00 to 9.00 in assay [2].

As to `O=C1CN(c2c(O)cc3c(c2F)CNCC3)S(=O)(=O)N1` [Compound 143, 5-(8-fluoro-6-hydroxy-1,2,3,4-tetrahydroisoquinolin-7-yl)-1λ^6,2,5-thiadiazolidine-1,1,3-trione], the pIC50 in assay [1] is under 7.00; in assay [2], 7.00 to 8.00.

`NCCCN1CCc2cc(O)c(N3CC(=O)NS3(=O)=O)c(F)c2C1` [Compound 218]: the pIC50 is 7.00 to 8.00 in assay [1] and under 7.00 in assay [2].

Regarding `CC(=O)N[C@@H]1CCc2cc(O)c(N3CC(=O)NS3(=O)=O)c(F)c2C1` [Compound 402, N-[(2R)-8-fluoro-6-hydroxy-7-(1,1,4-trioxo-1λ^6,2,5-thiadiazolidin-2-yl)-1,2,3,4-tetrahydronaphthalen-2-yl]acetamide], the negative logarithm of the IC50 (pIC50) in assay [1] and in assay [2] was under 7.00 throughout.

Regarding `O=C1CN(c2c(O)cc3c(c2F)CN(C(=O)NCC2CC2)CC3)S(=O)(=O)N1` [Compound 258], the pIC50 in assay [1] and in assay [2] was 8.00 to 9.00 each time.

With `CC1(C)CCc2c(cc(O)c(N3CC(=O)NS3(=O)=O)c2F)O1` [Compound 112], the pIC50 in assay [1] and in assay [2] was under 7.00 throughout.

As to `NC[C@@H]1Cc2cc(O)c(N3CC(=O)NS3(=O)=O)c(F)c2C1` (single isomer, unassigned) [Compound 408], the pIC50 in assay [1] and in assay [2] was 8.00 to 9.00 in each case.

Regarding `CCn1nc(C)c(CCN2CCc3cc(O)c(N4CC(=O)NS4(=O)=O)c(F)c3C2)c1C` [Compound 276], the pIC50 in assay [1] was 8.00 to 9.00; in assay [2], over 9.00.

For the compound `O=C1CN(c2c(O)cc3c(c2F)CN(CCC2CCCCC2)CC3)S(=O)(=O)N1` [Compound 179], the pIC50 in assay [1] and in assay [2] was 7.00 to 8.00 each time.

For the compound `O=C1CN(c2c(O)cc3c(c2F)CN(CCCO)CC3)S(=O)(=O)N1` [Compound 244], the pIC50 in assay [1] and in assay [2] was 7.00 to 8.00 each time.

In the case of `O=C1CN(c2c(O)cc3c(c2F)CN(CC2CCNCC2)CC3)S(=O)(=O)N1` [Compound 228], the pIC50 was 7.00 to 8.00 in assay [1] and under 7.00 in assay [2].

For `N[C@@H]1CCc2cc(O)c(N3CC(=O)NS3(=O)=O)c(F)c2C1` [Compound 198], the pIC50 in assay [1] is under 7.00; in assay [2] it was 7.00 to 8.00.

As to `O=C1CN(c2c(O)cc3c(c2F)CN(CCCCC(F)(F)F)CC3)S(=O)(=O)N1` [Compound 153, 5-[8-fluoro-6-hydroxy-2-(5,5,5-trifluoropentyl)-1,2,3,4-tetrahydroisoquinolin-7-yl]-1λ^6,2,5-thiadiazolidine-1,1,3-trione], the pIC50 in assay [1] and in assay [2] was 7.00 to 8.00 in each case.
